Measured values as given in PMC6028563, “Probing Substituents in the 1- and 3-Position: Tetrahydropyrazino-Annelated Water-Soluble Xanthine Derivatives as Multi-Target Drugs With Potent Adenosine Receptor Antagonistic Activity” (Frontiers in Chemistry, 2018).
In brackets after ≈: the same amount, converted by molar mass. Read-outs that look alike come from different tables or passages of the source.

Assays:
[1] = biological target: T1, human A2A AR (Homo sapiens, UniProt P29274); details: human (h); Figure 3 and introduction; ref Drabczynska et al., 2007; Koch et al., 2013; Brunschweiger et al., 2014, 2016; cited from earlier work
T1 construct: expressed in transfected cells; host or cells: CHO cells

[2] = biological target: T2, human A1 AR (Homo sapiens, UniProt P30542); details: human (h); Figure 3 and introduction; ref Drabczynska et al., 2007; Koch et al., 2013; Brunschweiger et al., 2014, 2016; read-out: A1 (Ki); cited from earlier work
T2 construct: expressed in transfected cells; host or cells: CHO cells
T2 sequence (P30542 1-326): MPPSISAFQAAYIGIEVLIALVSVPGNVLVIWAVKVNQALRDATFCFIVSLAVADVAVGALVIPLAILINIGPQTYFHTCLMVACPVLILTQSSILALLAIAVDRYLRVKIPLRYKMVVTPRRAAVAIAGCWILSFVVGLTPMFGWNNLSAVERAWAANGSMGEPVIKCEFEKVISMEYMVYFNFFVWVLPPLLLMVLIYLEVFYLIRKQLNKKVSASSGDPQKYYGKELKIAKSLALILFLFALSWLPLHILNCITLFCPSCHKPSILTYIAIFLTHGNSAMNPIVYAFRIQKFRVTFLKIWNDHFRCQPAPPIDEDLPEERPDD

[3] = biological target: T3, recombinant human MAO-B (Homo sapiens, UniProt P27338); details: human (h); Figure 2 and introduction; ref Chen et al., 2002; Pretorius et al., 2008; Wang et al., 2017; Stössel et al., 2013; cited from earlier work
T3 construct: purchased Sigma-Aldrich M7441; host or cells: baculovirus-infected insect cells
T3 sequence (P27338 1-520): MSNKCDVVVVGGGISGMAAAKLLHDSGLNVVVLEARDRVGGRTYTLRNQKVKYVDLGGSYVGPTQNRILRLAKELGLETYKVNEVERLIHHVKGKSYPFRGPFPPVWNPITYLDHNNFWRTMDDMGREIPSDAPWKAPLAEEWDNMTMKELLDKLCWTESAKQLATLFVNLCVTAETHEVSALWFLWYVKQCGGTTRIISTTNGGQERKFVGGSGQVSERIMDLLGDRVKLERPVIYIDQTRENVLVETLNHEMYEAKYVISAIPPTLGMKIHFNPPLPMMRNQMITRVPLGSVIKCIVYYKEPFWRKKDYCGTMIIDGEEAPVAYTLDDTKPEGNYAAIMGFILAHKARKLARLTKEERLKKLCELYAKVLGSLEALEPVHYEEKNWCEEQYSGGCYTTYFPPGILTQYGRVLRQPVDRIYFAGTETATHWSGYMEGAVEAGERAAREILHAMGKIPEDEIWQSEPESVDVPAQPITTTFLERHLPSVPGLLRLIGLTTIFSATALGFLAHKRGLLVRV

[4] = biological target: T3, recombinant human MAO-B; experiment: Monoamine oxidase assay (Amplex Red), MAO-B; type: biochemical; details: for inhibition at 10 µM: at 10,000 nM (10 μM), read-out: % inhibition at indicated concentration, Human MAO-B; for IC50: n = 3, read-out: IC50 ± SEM, Human MAO-B
In short: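 Recombinant human MAO-A and MAO-B, expressed in baculovirus-infected insect cells, were assayed by Amplex Red fluorometric detection. Rat MAO-B inhibition used mitochondria-enriched fractions from male Sprague Dawley rat liver.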

[5] = biological target: T1, human A2A AR; experiment: Radioligand binding assay at human A2A AR vs. [^3H]MSX-2
Experimental: Membrane preparations and radioligand binding assays at rat A1 (rat brain cortex) and rat A2A ARs (rat brain striatum) were performed as previously described (Ozola et al., [2003]; Alnouri et al., [2015]). For assays at human A1, A2A, A2B, and A3 ARs, CHO cell membranes expressing one of the human AR subtypes were used as previously reported (Klotz et al., [1998]; Alnouri et al., [2015]; De Filippo et al., [2016]).
The synthesized tetrahydropyrazino[2,1-f ]purinediones 13–20 were evaluated in radioligand binding assays for their affinity to A1 ARs of rat brain cortical membrane and to A2A ARs of rat brain striatal membrane preparations. Selected compounds were further investigated for their affinity to human A1 and A2A ARs recombinantly expressed in Chinese hamster ovary (CHO) cells. All compounds were additionally investigated for their affinity to human A2B and A3 ARs recombinantly expressed in CHO cells to determine their AR subtype selectivity. […] It is well known that all xanthine derivatives lacking a ribose moiety, including tricyclic compounds, can only block ARs, but never act as AR agonists; therefore, additional functional studies were not required. […] Potent MAO-B inhibitors were additionally investigated for inhibition of human MAO-A to assess their selectivity. Results are presented in Tables 1–6, and data of standard ligands are included for comparison.

[6] = biological target: T2, human A1 AR; experiment: Radioligand binding assay at human A1 AR vs. [^3H]CCPA; details: human (h); CHO cell membranes; n = 3
In short: (§1)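 Membranes were prepared from rat brain cortex for A1 and from rat striatum for A2A, then used in radioligand displacement. For the human receptors, CHO cells recombinantly expressing a single AR subtype supplied the membranes.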

[7] = biological target: T4, rat A2A AR (Rattus norvegicus, UniProt P30543); experiment: Radioligand binding assay at rat A2A AR (rat brain striatum) vs. [^3H]MSX-2; details: rat (r); for % inhibition of radioligand binding at indicated concentration, A2A vs. [^3H]MSX-2: at 1,000 nM; for Ki: rat brain striatum, n = 3, read-out: Ki ± SEM, A2A vs. [^3H]MSX-2
T4 construct: A2A ARs of rat brain striatal membrane preparations; from tissue; host or cells: rat brain striatum membranes
In short: as §1

[8] = biological target: T5, rat A1 AR (Rattus norvegicus, UniProt P25099); experiment: Radioligand binding assay at rat A1 AR (rat brain cortex) vs. [^3H]CCPA; details: rat (r); rat brain cortex; n = 3
T5 construct: A1 ARs of rat brain cortical membrane; from tissue; host or cells: rat brain cortex membranes
T5 sequence (P25099 1-326): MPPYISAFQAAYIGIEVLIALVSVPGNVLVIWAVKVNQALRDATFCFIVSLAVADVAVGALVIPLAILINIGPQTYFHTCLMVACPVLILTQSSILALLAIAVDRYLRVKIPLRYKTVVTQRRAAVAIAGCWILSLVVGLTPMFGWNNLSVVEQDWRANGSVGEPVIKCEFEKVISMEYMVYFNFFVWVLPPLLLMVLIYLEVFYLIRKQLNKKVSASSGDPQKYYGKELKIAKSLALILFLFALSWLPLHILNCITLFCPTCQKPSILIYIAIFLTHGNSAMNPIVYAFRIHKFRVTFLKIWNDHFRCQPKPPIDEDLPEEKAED
In short: as §1

[9] = biological target: T6, recombinant human MAO-A (Homo sapiens, UniProt P21397); experiment: Monoamine oxidase assay (Amplex Red), MAO-A; type: biochemical; details: for inhibition at 10 µM: at 10,000 nM, read-out: % inhibition at indicated concentration, Human MAO-A; for IC50: n = 3, read-out: IC50 ± SEM, Human MAO-A
T6 construct: purchased Sigma-Aldrich M7316; host or cells: baculovirus-infected insect cells
T6 sequence (P21397 1-527): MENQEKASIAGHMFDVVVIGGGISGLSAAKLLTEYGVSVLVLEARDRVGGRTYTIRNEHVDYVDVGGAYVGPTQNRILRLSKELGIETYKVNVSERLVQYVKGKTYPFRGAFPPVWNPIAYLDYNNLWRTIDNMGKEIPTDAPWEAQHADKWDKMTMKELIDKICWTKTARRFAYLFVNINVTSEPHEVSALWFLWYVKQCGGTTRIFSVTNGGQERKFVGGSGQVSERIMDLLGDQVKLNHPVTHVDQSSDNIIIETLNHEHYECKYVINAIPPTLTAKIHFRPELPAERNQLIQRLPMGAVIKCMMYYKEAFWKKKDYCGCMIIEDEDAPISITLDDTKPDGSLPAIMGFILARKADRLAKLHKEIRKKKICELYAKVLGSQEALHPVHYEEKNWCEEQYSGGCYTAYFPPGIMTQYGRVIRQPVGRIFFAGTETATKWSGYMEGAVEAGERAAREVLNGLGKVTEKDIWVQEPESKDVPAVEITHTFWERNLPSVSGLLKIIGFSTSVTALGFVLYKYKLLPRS
Experimental: The determination of MAO-A and MAO-B inhibition was performed using commercially available recombinant human MAO-A and MAO-B enzymes expressed in baculovirus-infected insects sells (Sigma-Aldrich, M7316 and M7441) applying the commercially available Amplex® Red monoamine oxidase assay kit (Invitrogen A12214). The assays were performed as previously described. The determination of rat MAO-B inhibition was performed using mitochondrial-enriched fractions from male Sprague Dawley rat livers. […]

[10] = biological target: T7, human A2B AR (Homo sapiens, UniProt P29275); experiment: Radioligand binding assay at human A2B AR vs. [^3H]PSB-603
T7 construct: expressed in transfected cells; host or cells: CHO cells
T7 sequence (P29275 1-332): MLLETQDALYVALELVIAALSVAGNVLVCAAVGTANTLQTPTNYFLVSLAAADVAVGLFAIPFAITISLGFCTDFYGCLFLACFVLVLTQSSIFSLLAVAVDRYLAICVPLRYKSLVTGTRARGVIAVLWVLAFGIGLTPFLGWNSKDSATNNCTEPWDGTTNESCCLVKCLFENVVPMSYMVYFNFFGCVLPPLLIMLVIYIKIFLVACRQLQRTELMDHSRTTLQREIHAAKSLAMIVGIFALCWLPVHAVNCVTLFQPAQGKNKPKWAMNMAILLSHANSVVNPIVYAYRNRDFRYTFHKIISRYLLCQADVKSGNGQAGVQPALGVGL
In short: as §1

[11] = biological target: T8, human A3 AR (Homo sapiens, UniProt P0DMS8); experiment: Radioligand binding assay at human A3 AR vs. [^3H]PSB-11; details: CHO cell membranes, n = 2 (n = 3 where marked a), read-out: Ki ± SEM, A3 vs. [^3H]PSB-11
T8 construct: expressed in transfected cells; host or cells: CHO cells
T8 sequence (P0DMS8 1-318): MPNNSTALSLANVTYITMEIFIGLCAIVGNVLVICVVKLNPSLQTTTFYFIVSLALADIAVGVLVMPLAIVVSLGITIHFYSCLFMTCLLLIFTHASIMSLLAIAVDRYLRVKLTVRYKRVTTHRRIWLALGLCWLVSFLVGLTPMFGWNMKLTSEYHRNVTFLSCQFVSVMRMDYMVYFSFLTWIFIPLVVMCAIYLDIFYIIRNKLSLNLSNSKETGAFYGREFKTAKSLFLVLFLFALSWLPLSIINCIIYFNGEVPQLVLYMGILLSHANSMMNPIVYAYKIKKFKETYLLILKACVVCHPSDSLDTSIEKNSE
In short: as §1

[12] = Thermodynamic solubility measurements; type: physicochemical; details: thermodynamic from solid, thermodynamic solubility
From the text: This is expected to facilitate dissolution in the stomach. Depending on the substitution pattern they may also be well soluble at higher pH values (Brunschweiger et al., [2014]). In the present study we measured thermodynamic solubility of only very few compounds exemplarily (14a-e, 14g, 15f,g) and confirmed their high solubility at pH 1 (see Table S1 in Supplementary Material). Most of these compounds were still soluble at pH 7.4. The best soluble derivative was the 3-ethyl-1-methyl-8-m-fluorobenzyl derivative 14g with solubilities of >1.5 g/L (4.2 mM) at pH 1, 50 mg/L (0.14 mM) at pH 4, and 40 mg/L ([…]) at pH 7.4.
Table S1. Solubility of selected compounds at three different pH values (in mg/mL).a
Compound pH 1 pH 4 pH 7.4
adetermined by thermodynamic solubility measurements.

T1 sequence (P29274 whole entry): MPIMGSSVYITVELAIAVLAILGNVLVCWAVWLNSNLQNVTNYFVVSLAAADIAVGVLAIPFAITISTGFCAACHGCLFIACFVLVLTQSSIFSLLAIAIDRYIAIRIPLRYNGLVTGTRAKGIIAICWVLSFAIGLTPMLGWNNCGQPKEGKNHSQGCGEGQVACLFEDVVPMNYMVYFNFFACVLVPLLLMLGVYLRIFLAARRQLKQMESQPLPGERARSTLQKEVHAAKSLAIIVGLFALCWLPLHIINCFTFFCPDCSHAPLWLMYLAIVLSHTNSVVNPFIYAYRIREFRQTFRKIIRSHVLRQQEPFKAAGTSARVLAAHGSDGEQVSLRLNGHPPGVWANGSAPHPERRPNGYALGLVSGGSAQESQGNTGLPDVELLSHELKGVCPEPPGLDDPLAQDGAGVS
T4 sequence (P30543 whole entry): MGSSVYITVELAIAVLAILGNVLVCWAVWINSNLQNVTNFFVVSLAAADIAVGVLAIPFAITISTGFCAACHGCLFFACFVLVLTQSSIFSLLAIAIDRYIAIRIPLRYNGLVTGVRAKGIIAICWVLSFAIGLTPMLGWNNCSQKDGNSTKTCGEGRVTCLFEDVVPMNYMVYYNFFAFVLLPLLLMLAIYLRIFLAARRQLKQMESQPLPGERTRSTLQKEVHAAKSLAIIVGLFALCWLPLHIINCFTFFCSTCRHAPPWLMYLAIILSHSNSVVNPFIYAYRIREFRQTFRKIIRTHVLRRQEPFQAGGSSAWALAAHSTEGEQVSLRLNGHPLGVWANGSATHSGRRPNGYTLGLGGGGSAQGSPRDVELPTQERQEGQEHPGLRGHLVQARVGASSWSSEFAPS

Molecule	inhibition at 10 µM [4]	IC50 [4]	Ki [6]	% inhibition of radioligand binding at indicated concentration, A2A vs. [^3H]MSX-2 [7]	Ki [7]	Ki [8]	inhibition at 10 µM [9]	IC50 [9]	Ki [11]	Ki [1]	Ki [2]	other results
Cn1c(=O)c2c(nc3n2CCCN3Cc2ccccc2)n(C)c1=O [Compound 9a]	–	–	–	–	–	–	–	–	–	253 nM	249 nM	–
Cn1c(=O)c2c(nc(/C=C/C=C/c3cccc(Br)c3)n2C)n(C)c1=O [Compound 4]	–	–	–	–	–	–	–	–	–	–	–	IC50 [3]: 37.9 nM
1,3-Dimethyl-6,7,8,9-tetrahydropyrazino[2,1-f ]purine-2,4(1H,3H)-dione [Compound 10c]	–	–	–	–	–	–	–	–	–	94 nM	116 nM	–

Now from value to molecule, other results behind:

inhibition at 10 µM [4]	IC50 [4]	Ki [6]	% inhibition of radioligand binding at indicated concentration, A2A vs. [^3H]MSX-2 [7]	Ki [7]	Ki [8]	inhibition at 10 µM [9]	IC50 [9]	Ki [11]	Molecule	Ki [1]	Ki [2]	other results
> 50%	≤ 10 µM	121 ± 45 nM	33%	> 1000 nM	53 ± 5.8 nM	20%	> 10 µM	–	CCn1c(=O)c2c(nc3n2CCN(Cc2cccc(Cl)c2)C3)n(C)c1=O [Compound 14i, 8-(3-chlorobenzyl)-3-ethyl-1-methyl-6,7,8,9-tetrahydropyrazino[2,1-f]purine-2,4(1H,3H)-dione]	–	–	% inhibition of radioligand binding at indicated concentration, A2A vs. [^3H]MSX-2 ([5]; at 1,000 nM): 8%; inhibition at 10 µM ([10]; at 10,000 nM, read-out: % inhibition of radioligand binding at indicated concentration, A2B vs. [^3H]PSB-603): 36%
–	2.91 µM	475 ± 47 nM	–	675 ± 104 nM	152 ± 12 nM	9%	> 10 µM	12.7 µM	CCCn1c(=O)c2c(nc3n2CCN(Cc2ccc(Cl)c(Cl)c2)C3)n(C)c1=O [Compound 18]	–	–	Ki ([5]; CHO cell membranes, n = 3, read-out: Ki ± SEM, A2A vs. [^3H]MSX-2): 2110 nM
41%	> 10 µM	129 ± 9 nM	32%	> 1000 nM	51.4 ± 14.7 nM	–	–	4.06 µM	CCn1c(=O)c2c(nc3n2CCN(Cc2ccccc2C(F)(F)F)C3)n(CC)c1=O [Compound 15f, 1,3-diethyl-8-(2-(trifluoromethyl)benzyl)-6,7,8,9-tetrahydropyrazino[2,1-f]purine-2,4(1H,3H)-dione]	–	–	solubility ([12]; aqueous buffer, pH 4, read-out: Solubility, pH 4): 0.9 µg/mL (≈ 2.14 µM); solubility ([12]; aqueous buffer, pH 7.4, read-out: Solubility, pH 7.4): 0.7 µg/mL (≈ 1.66 µM); solubility ([12]; simulated gastric fluid, pH 1, read-out: Solubility, pH 1): 300 µg/mL (≈ 712 µM); Ki ([10]; CHO cell membranes, n = 2 (n = 3 where marked a), read-out: Ki ± SEM, A2B vs. [^3H]PSB-603): > 1000 nM; inhibition at 1 µM ([10]; at 1,000 nM, read-out: % inhibition of radioligand binding at indicated concentration, A2B vs. [^3H]PSB-603): 2%
